Laboratory results reported in paper PMC5503626, “GLUT1-mediated selective tumor targeting with fluorine containing platinum(II) glycoconjugates” (Oncotarget, 2017).
Each block holds one molecule with its values, some of them ahead of it.

Columns and labels:
[1] = test system: MCF7 (human breast cancer cell line); test: MTS cytotoxicity assay, MCF7; format: cell-based; conditions: 72 h, mean ± SD
Protocol: (§1) The cisplatin stock solution was prepared in PBS.

[2] = test system: A549 (human lung carcinoma); test: MTS cytotoxicity assay, A549; format: cell-based; conditions: for IC50: MTS assay, 72 h, mean ± SD
Protocol: as §1

[3] = test system: 5′-Guanosine Monophosphate (5′-GMP); test: Reaction kinetics with 5′-GMP by 1H NMR; conditions: 5 mM complex, 10 mM 5′-GMP, 5 mM NaCl, pH 7.2-7.4, 37°C
Protocol: A 5 mM solution of the sodium chloride was added to the mixture to simulate the intracellular environment.
Kinetic study of the substitution reactions between sugar conjugated platinum complexes with 5′-Guanosine Monophosphate was performed on Bruker Avance 400 MHz spectrometer by ^1H NMR analysis. Platinum complex (5 mM) and 5′-GMP (10 mM) were freshly prepared in deuterium oxide (D2O) at 37°C. A 5 mM solution of the NaCl in D2O was added to the mixture just before running the spectra. All samples were incubated at 37°C in a water bath to simulate physiological conditions and 1H NMR spectra were recorded at 295 K over a period of several days.

[4] = test system: HT29 (human colon cancer cell line); conditions: read-out: IC50 (μM) HT29; MTS assay, 72 h, mean ± SD
Protocol: The human colon cancer (HT29), breast cancer (MCF7), prostate cancer (DU145) and ovarian cancer (SK-OV-3) cell lines, were obtained from Central Institute of Pharmaceutical Research, CSPC Pharmaceutical Group, China. The human lung cancer cell lines H460 and A549 were purchased from the American Type Culture Collection (ATCC). […] MCF7 and SK-OV-3 were cultured in advanced Dulbecco's modified Eagle medium (DMEM), and other cell lines were cultured as adherent monolayer in RPMI-1640 supplemented with 1% (w/v) glutamine and 10% (v/v) fetal bovine serum (Gibco) at 37°C under a humidified atmosphere containing 5% CO2 and 95% air.
Cytotoxicity assays were carried out by the Celltiter 96 aqueous nonradioactive cell proliferation assay (Promega, Madison, WI). Cells were harvested by trypsinization and seeded in a 96-well flat-bottomed microplate in volumes of 100 μL at the following appropriate densities: 5.0 × 10^3 (A549), 8.0 × 10^3 (HT29), and 3.0 × 10^3 (H460), 5.0 × 10^3 (SKOV3), 8.0 × 10^3 (MCF7), 8.0 × 10^3 (DU145) cells per well. After being allowed to settle and resume exponential growth for 24 h, the cells were treated either with vehicle or with appropriate serial dilutions of the complexes. […] All the tested compounds were dissolved at room temperature prior to use and serially diluted in medium. Cells were incubated in a humidified atmosphere of 5% CO2 at 37°C for 72h. After incubation, 20 μL of MTS/PMS solution were added to each well and the mixtures were allowed to equilibrate for 2 h. The absorbance of MTS products was measured spectrophotometrically at 490 nm with microplate reader (VERSAmax, USA). The IC50 values of each test sample were calculated from nonlinear curve fits using dose-response equation in GraphPad Prism (La Jolla, CA). Experimental conditions were performed in five replicates and the calculated IC50 values are averages of three individual experiments.

[5] = test system: H460 (human lung cancer cell line); test: MTS cytotoxicity assay, H460; format: cell-based; conditions: 72 h, mean ± SD
Protocol: as §1

[6] = test system: L1210 leukemia bearing DBA/2 mice; conditions: 5a 11 mg/kg (18% MTD) vs oxaliplatin 7 mg/kg (70% MTD), i.p., days 1, 5, 9
Protocol: The same male DBA/2 mice were used for in vivo efficacy study. Mice were kept in a pathogen-free environment under a condition of constant photoperiod. […] Six mice for treatment groups and ten mice for control group were used for this in vivo study. L1210 murine leukemia cells (1 × 10^6) were injected intraperitoneally into DBA/2 mice on day 0. […] Control group of ten mice each received injections of sterile saline. Animals were observed daily for clinical signs of toxicity and body weight was measured throughout the study.

[7] = test system: SKOV3 (human ovarian cancer cell line); test: MTS cytotoxicity assay, SKOV3; format: cell-based; conditions: for IC50: MTS assay, 72 h, mean ± SD
Protocol: as §1

[8] = test system: HT29, empty vector transfected and shGLUT1-transfected cells; test: Cellular platinum accumulation (ICP-MS); format: cell-based, human; conditions: 200 μM, 2 h, DNA isolated
Protocol: The uptake values are depicted in Figure 5H.
HT29 cells were seeded in 10 cm dishes at densities of 6 × 10^6 cells/dish and kept at 37°C in a humidified 5% CO2 incubator. […] The cell suspensions were centrifuged at 2500 rpm for 10 min and remove the PBS. Vortex vigorously to resuspend cells. Nuclei lysis solution was added to lyse the cells. DNA was extracted with TIANamp Genomic DNA kit (TIANGEN). The extracted DNA was dissolved in concentrated nitric acid (0.05 mL) and diluted with 4.95 mL of deionized water (final concentration 1% v/v) for determining the platinum content. The platinum content taken up by the cells was determined by Agilent 7700X ICP-MS (Agilent Technologies, Tokyo, Japan). Calibrations were done using standard solutions containing 6.25, 12.5, 25, 50 and 100 ppb platinum.

[9] = test system: DU145 (human prostate cancer cell line); test: MTS cytotoxicity assay, DU145; format: cell-based; conditions: 72 h, mean ± SD
Protocol: as §1

BALB/c nude mice = conditions: previous study; cited from earlier work
DBA/2 mice [10] = conditions: previous study; cited from earlier work
DBA/2 mice [11] = conditions: both mouse models (DBA/2 and BALB/c)
Protocol: The maximum tolerated dose is defined as the highest tolerated dose (mean weight loss < 15%) without causing major (life-threatening) toxicity (< 15% toxic deaths) in the study.
Three weeks-old male DBA/2 mice purchased from Beijing Vital River Laboratory Animal Technology Co. Ltd. were used for MTD study. Determination of MTD was performed as previously described [22]. […] Physiological observations (body weight and food consumption) were recorded. The maximum tolerated dose is defined as the highest tolerated dose (mean weight loss < 15%) and not cause major (life-threatening) toxicity (< 15% toxic deaths) during the study.

[12] = test system: HT29 tumor xenograft BALB/c nude mice model
Protocol: Female BALB/c nude mice were inoculated by subcutaneous injection of HT29 human colon cancer cells (5 × 10^6). For the treatment groups, drug dosage was adjusted for average body weight for each group. Injection volume was 10 mL/kg. Each treatment group contains eight mice and control animals used ten mice and received injections of sterile saline. Treatments were initiated when the tumor reached a volume of 100-300 mm^3 in all mice. Animals received multiple treatments intravenously on days 0, 7, 14 and 21. […] Saline (5% v/v) was administered to the vehicle control group. Tumor volume was assessed regularly by measuring length (l) and width (w) with caliper and calculated using the formula V = lw^2/2. Body weight was recorded and used as a parameter of systemic toxicity. All mice were sacrificed on the 46th day of the experiment, and the tumor weight was measured.

[13] = test system: cisplatin resistant HT29cisR human colon carcinoma cell line; test: Cytotoxicity in cisplatin resistant cells; format: cell-based; conditions: read-out: IC50 against HT29cisR
Protocol: as §1

pUC18 plasmid DNA = test: Plasmid unwinding assay (gel electrophoresis); conditions: 12.5 to 100 μM, 37°C
Protocol: To assess if the in vitro anti-proliferative activity of the sugar conjugates may be at the DNA adduct level, a plasmid unwinding assay was performed. The local untwisting of closed-circular supercoiled DNA induced by different types of platinum−DNA adducts can be determined by this assay [36]. […] On agarose gels, supercoiled plasmid DNA (form I) migrates faster in an electrical field than the nicked circle (form II).
After the incubation period, drug-DNA mixtures were loaded onto 0.8% agarose gel and electrophoresis was performed in Tris-acetate/EDTA buffer (TAE) for 1.5 h at 80 V. The gel was stained with GelRed^TM nucleic acid dye, visualized and photographed on the Bio-Rad Trans illuminator IEC 1010 (Bio-Rad, Hercules, CA).

[14] = test system: HT29 human colon cancer cell line; test: GLUT1 inhibitor (quercetin) dependent cytotoxicity assay; format: cell-based; conditions: 48 h
Protocol: (E) RT-PCR analysis of GLUT1 mRNA expression in empty vector transfected and shGLUT1-transfected cells. NT: HT29 cells; mock: HT29 cells transfected by empty vector pLKO.1; shRNA1: HT29 cells transfected by shGLUT1-1 and selected by 1 μg/mL of puromycin; shRNA2: HT29 cells transfected by shGLUT1-2 and selected by 1 μg/mL of puromycin. […] HT29 exposed with PBS or quercetin alone were served as negative control. […] Data was calculated from three independent experiments. *P < 0.05, compared to the control group.
HT29 cells were grown in monolayer and were treated with and without quercetin, followed by exposure to 100 μM of platinum(II) complexes for 48 h. MTS assay was used to analyze the cell viability and the effects of GLUT1 inhibitor quercetin on cytotoxicity.

SMILES: O=C1[O][Pt]2([NH][C@@H]3CCCC[C@H]3[NH]2)[O]C(=O)C1(F)CCO[C@H]1O[C@H](CO)[C@@H](O)[C@H](O)[C@H]1O (stereo partly drawn) [5a, (trans-R,R-cyclohexane-1,2-diamine)-2-fluoromalonatoplatinum(II)-α-D-glucose conjugate]
IC50 [1]: 0.61 ± 0.13 µM
IC50 [2]: 0.35 ± 0.17 µM
activity higher than oxaliplatin in A549 ([2]; versus oxaliplatin): 2 fold
reaction with 5′-GMP compared to oxaliplatin [3]: faster reactions
IC50 [4]: 0.53 ± 0.16 µM
IC50 [5]: 11.05 ± 0.11 µM
lifespan and survival rate [6]: overwhelming superiority in lifespan and survival rate
IC50 [7]: 16.7 ± 0.32 µM
platinum uptake (intracellular platinum accumulation) [8]: greater than that in HT29-shRNA1 and HT29-shRNA2 cells
IC50 [9]: 5.98 ± 0.16 µM
MTD (BALB/c nude mice): 36 mpk
MTD (DBA/2 mice [10]): 60 mpk
MTD higher than oxaliplatin (DBA/2 mice [11]): ~5 fold
tumor volume ([12]; 25 mg/kg i.v., days 0, 7, 14, 21): statistically significant tumor shrinkage

IC50 [4]: 2.16 ± 0.18 µM
SMILES: O=C1[O][Pt]2([NH][C@@H]3CCCC[C@H]3[NH]2)[O]C(=O)C1(F)CCO[C@H]1O[C@H](CO)[C@@H](O)[C@H](O)[C@@H]1O (stereo partly drawn) [5b, (trans-R,R-cyclohexane-1,2-diamine)-2-fluoromalonatoplatinum(II)-α-D-mannose conjugate]
IC50 [1]: 0.41 ± 0.09 µM
IC50 [2]: 0.65 ± 0.1 µM
reaction with 5′-GMP compared to oxaliplatin [3]: faster reactions
IC50 [5]: 10.2 ± 0.15 µM
IC50 [7]: 2.22 ± 0.19 µM
lower IC50 values than oxaliplatin in SK-OV-3 ([7]; versus oxaliplatin): up to 70%
IC50 [9]: 2.6 ± 0.18 µM

IC50 [4]: 1.07 ± 0.12 µM
SMILES: O=C1[O][Pt]2([NH][C@@H]3CCCC[C@H]3[NH]2)[O]C(=O)C1(F)CCO[C@@H]1O[C@H](CO)[C@H](O)[C@H](O)[C@H]1O (stereo partly drawn) [5c, (trans-R,R-cyclohexane-1,2-diamine)-2-fluoromalonatoplatinum(II)-β-D-galactose conjugate]
IC50 [1]: 9.82 ± 0.12 µM
IC50 [2]: 4.9 ± 0.16 µM
reaction with 5′-GMP compared to oxaliplatin [3]: faster reactions
IC50 [5]: 10 ± 0.15 µM
IC50 [7]: 22.05 ± 0.2 µM
IC50 [9]: 5.11 ± 0.14 µM

SMILES: N.N.[Cl][Pt][Cl] [Cisplatin, cis-(NH3)2PtCl2]
IC50 [13]: 19.4 µM
mobility of supercoiled and singly-nicked plasmid DNA bands (pUC18 plasmid DNA): increased and showed concentration dependency

SMILES: O=C1[O][Pt]2([NH][C@@H]3CCCC[C@H]3[NH]2)[O]C1=O [Oxaliplatin, reference compound]
IC50 [1]: 0.79 ± 0.11 µM
IC50 [2]: 0.86 ± 0.09 µM
dependency of cell-killing potency on quercetin ([14]; 100 μM platinum complex, with or without quercetin (20 μM)): did not exhibit quercetin dependent cytotoxicity
IC50 [4]: 5.05 ± 0.2 µM
IC50 [5]: 22.11 ± 0.17 µM
IC50 [7]: 8.54 ± 0.18 µM
IC50 [9]: 2.05 ± 0.16 µM
MTD (BALB/c nude mice): 7 mpk
MTD (DBA/2 mice [10]): 10 mpk
mobility of supercoiled and singly-nicked plasmid DNA bands (pUC18 plasmid DNA): increased and showed concentration dependency
body weight change versus vehicle group ([12]; 5a 25 mg/kg, oxaliplatin 7 mg/kg, i.v. qw x 4): no significant difference

SMILES: O=c1c(O)c(-c2ccc(O)c(O)c2)oc2cc(O)cc(O)c12 [quercetin]
cytotoxic effect of quercetin alone ([14]; quercetin 20 μM alone): did not exert any cytotoxic effect
